Legend:
[1] = tested on: Respiratory Syncytial Virus (RSV) long strain (ATCC#VR-26); assay: RSV Antiviral Assay (CPE reduction assay); format: cell-based; conditions: human respiratory syncytial virus, 120 h; HEp-2 cells infected with RSV long strain, 5 days, CCK-8 readout; bins (Table 2: less than 1 μM; Table 3: equal to or higher than 1 μM and less than 50 μM); read-out: 50% effective concentration (EC50)
Procedure, shortened: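 Cytopathic-effect protection measured after 5 days at 37 °C, 5% CO2 via CCK-8 dehydrogenase readout at 450 nm (630 nm reference), EC50 regressed from mean O.D. Host HEp-2 cells received RSV long strain at 100 TCID50/well; compound 9-point ⅓ series starting 100 μM or 1 μM, 1% DMSO, duplicate wells.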

[2] = Cytotoxicity Determination; format: cell-based; conditions: human, HEp-2 cells, without addition of virus, CCK-8 readout, bins (Table 4: greater than 100 μM; Table 5: equal to or less than 100 μM and greater than 10 μM), read-out: 50% cytotoxicity concentration (CC50)
Procedure, shortened: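 CC50 was derived from CCK-8 optical density after a 3-4 h reagent incubation. Before that, cells without virus had been treated for 5 days at 37 °C, 5% CO2 with compound at seven ½-step final concentrations from 100 μM, in duplicate wells.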

SMILES	EC50 [1] [µM]	CC50 at 5 days [2] [µM]
COc1cc(C(=O)NCC(=O)c2ccc(OC)c(-c3ccc(F)c(C(F)F)c3)n2)ccc1OCCO [Compound 1327]	< 1	> 100
COc1cc(C(=O)NCC(=O)c2ccc(OC)c(-c3ccc(F)c(O)c3)n2)ccc1OCCO [Compound 1328]	< 1	> 100
COc1cc(-c2nc(C(=O)CNC(=O)c3ccc(OCCO)c(OC)c3)ccc2OC)ccc1F [Compound 1329]	< 1	> 100
COc1cc(C(=O)NCC(=O)c2ccc(OC)c(-c3ccc(Cl)nc3)n2)ccc1OCCO [Compound 1330]	1 to 50	> 100
COCCc1ccc(C(=O)NCC(=O)c2ccc(OC)c(-c3ccc(F)c(Cl)c3)n2)cc1OC [Compound 1331]	1 to 50	10 to 100
COc1cc(C(=O)NCC(=O)c2ccc(OC)c(-c3ccc(F)c(Cl)c3)n2)ccc1OCc1cnc[nH]1 [Compound 1332]	< 1	10 to 100
COc1cc(C(=O)NCC(=O)c2ccc(OC)c(-c3ccc(F)c(Br)c3)n2)ccc1OCc1cnc[nH]1 [Compound 1333]	< 1	10 to 100
COCCc1ccc(C(=O)NCC(=O)c2ccc(OC)c(-c3ccc(F)c(Br)c3)n2)cc1OC [Compound 1334]	< 1	10 to 100
COc1ccc(C(=O)NCC(=O)c2ccc(O)c(-c3csc4c(F)cccc34)n2)cc1OC [Compound 1335]	< 1	10 to 100
COc1ccc(C(=O)NCC(=O)c2ccc(OC)c(-c3csc4c(F)cccc34)n2)cc1OC [Compound 1336]	< 1	> 100
COc1ccc(C(=O)NCC(=O)c2c[nH]cc(-c3csc4c(F)cccc34)c2=O)cc1OC [Compound 1337]	1 to 50	> 100
COc1ccc(C(=O)NCC(=O)c2cn(C)cc(-c3csc4c(F)cccc34)c2=O)cc1OC [Compound 1338]	1 to 50	10 to 100
COc1ccc(C(=O)NC(C)(C)C(=O)c2cccc(-c3csc4c(F)cccc34)n2)cc1OC [Compound 1340]	1 to 50	> 100
COc1ccc(C(=O)NCC(=O)c2nc(-c3csc4c(F)cccc34)cc(C(C)C)c2OC)cc1OC [Compound 1341]	1 to 50	> 100
COc1cc(C(=O)NCC(=O)c2ccc(OC)c(-c3c[nH]c4c(F)cccc34)n2)ccc1OCCO [Compound 1342]	< 1	> 100
COc1cc(C(=O)NCC(=O)c2ccc(OC)c(-c3coc4c(F)cccc34)n2)ccc1OCCO [Compound 1343]	< 1	> 100
COc1cc(C(=O)NCC(=O)c2ccc(OC)c(C3=CS(=O)(=O)c4c(F)cccc43)n2)ccc1OCCO [Compound 1344]	1 to 50	10 to 100
COc1cc(C(=O)NCC(=O)c2ccc(OC)c(-c3cnn4ccccc34)n2)ccc1OCCO [Compound 1345]	1 to 50	> 100
COc1cc(C(=O)NCC(=O)c2ccc(OC)c(-c3n[nH]c4ccccc34)n2)ccc1OCCO [Compound 1346]	1 to 50	> 100
COc1ccc(C(=O)NCC(=O)c2ccc(-c3csc4c(F)cccc34)o2)cc1OC [Compound 1351]	1 to 50	> 100
COc1ccc(C(=O)NCC(=O)c2ncc(-c3csc4c(F)cccc34)[nH]2)cc1OC [Compound 1352]	1 to 50	10 to 100
COc1ccc(C(=O)NCC(=O)c2nc(-c3csc4c(F)cccc34)cn2C)cc1OC [Compound 1353]	1 to 50	> 100
CCCn1cc(-c2csc3c(F)cccc23)nc1C(=O)CNC(=O)c1ccc(OC)c(OC)c1 [Compound 1355]	1 to 50	10 to 100

SMILES	EC50 [1] [µM]	CC50 at 5 days [2] [µM]
COc1ccc(C(=O)NCC(=O)c2nc(-c3csc4c(F)cccc34)cn2CC(C)C)cc1OC [Compound 1356]	1 to 50	> 100
COc1ccc(C(=O)NCC(=O)c2nc(-c3csc4c(F)cccc34)c(C)n2C)cc1OC [Compound 1358]	< 1	10 to 100
COc1cc(C(=O)CNC(=O)c2ccc(OC)c(OC)c2)nc(-c2ccc(O)cc2)c1 [Compound 1401]	1 to 50	10 to 100
COc1cc(C(=O)CNC(=O)c2ccc(OC)c(OC)c2)nc(-c2ccc3c(c2)OCCO3)c1 [Compound 1402]	1 to 50	> 100
COc1cc(C(=O)CNC(=O)c2ccc(OC)c(OC)c2)nc(-c2ccc3[nH]nnc3c2)c1 [Compound 1403]	1 to 50	> 100
COc1cc(C(=O)CNC(=O)c2ccc(OC)c(OC)c2)nc(-c2ccc(-c3c[nH]nn3)cc2)c1 [Compound 1405]	1 to 50	10 to 100
COc1ccc(C(=O)NCC(=O)c2ccc(OC)c(-c3c(C)sc4cccnc34)n2)cc1OC [Compound 1502]	1 to 50	> 100
COc1ccc(C(=O)NCC(=O)c2ccc(OC)c(-c3ccc4cnn(C)c4c3)n2)cc1OC [Compound 1503]	1 to 50	10 to 100
CNC(=O)c1ccc(-c2nc(C(=O)CNC(=O)c3ccc(OC)c(OC)c3)ccc2OC)cc1 [Compound 1504]	1 to 50	> 100
COc1ccc(C(=O)NCC(=O)c2ccc(OC)c(-c3ccc(C#N)cc3)n2)cc1OC [Compound 1505]	< 1	> 100
COc1ccc(C(=O)NCC(=O)c2ccc(OC)c(-c3ccc(N4CCOCC4)cc3)n2)cc1OC [Compound 1506]	1 to 50	10 to 100
COc1ccc(C(=O)NCC(=O)c2ccc(OC)c(-c3ccc4ncccc4c3)n2)cc1OC [Compound 1507]	1 to 50	10 to 100
COc1ccc(C(=O)NCC(=O)c2ccc(OC)c(-c3csc4ccccc34)n2)cc1OC [Compound 1508]	< 1	> 100
CCOc1cc(-c2nc(C(=O)CNC(=O)c3ccc(OC)c(OC)c3)ccc2OC)cc2ccccc12 [Compound 1509]	1 to 50	> 100
COc1ccc(C(=O)NCC(=O)c2ccc(OC)c(-c3cnoc3)n2)cc1OC [Compound 1510]	1 to 50	10 to 100
COc1ccc(C(=O)NCC(=O)c2ccc(OC)c(-c3c(C)ccnc3Cl)n2)cc1OC [Compound 1511]	1 to 50	10 to 100
COc1ccc(C(=O)NCC(=O)c2ccc(OC)c(-c3cccc4ccccc34)n2)cc1OC [Compound 1513]	1 to 50	10 to 100
COc1ccc(C(=O)NCC(=O)c2ccc(OC)c(-c3cc(C(=O)NC4CCCCC4)ccc3F)n2)cc1OC [Compound 1514]	1 to 50	> 100
COc1ccc(C(=O)NCC(=O)c2ccc(OC)c(-c3ccc(F)cc3)n2)cc1OC [Compound 1515]	< 1	> 100
COc1ccc(C(=O)NCC(=O)c2ccc(OC)c(-c3ccccc3C#N)n2)cc1OC [Compound 1516]	1 to 50	10 to 100
COc1ccc(C(=O)NCC(=O)c2ccc(OC)c(-c3ccc4ccccc4c3)n2)cc1OC [Compound 1517]	1 to 50	> 100
COc1ccc(C(=O)NCC(=O)c2ccc(OC)c(-c3ccc(C(=O)N4CCCCC4)cc3)n2)cc1OC [Compound 1518]	1 to 50	10 to 100

— patent US9724351B2, “Compounds for the treatment of paramoxyvirus viral infections” (priority 2012, dated 2017)
